# In patent publication US20040043503A1, “Automatic mass spectrometry analytical system for the quantitative detection of organic toxicant exposure in the human body” (priority 2002, published 2004):
# Assay: S-PMA concentration in urine samples from neonates and adults, by automatic mass spectrometry analytical system (on-line C18 cartridge, ESI-MS/MS)
# Type: in vivo, human
# Protocol: The collected urine samples were passed through 0.2 μm filtration membranes. An aliquot of 400 μL of filtered urine was firstly mixed with […] of 20% acetic acid and 100 μL of 1000 μg/L internal standard (IS), N-t-BOC-S-(p-methyl-benyl)-L-cysteine, with a known amount of S-PMA added when spiking experiments were performed, and diluted with 1400 μL of deionized water. From the total volume of 2000 μL, 200 μL of aliquot was injected into the analytical system (FIG. 1) for analysis. No other sample pretreatment procedures were performed or required other than the filtration described above. This can greatly simplify preparation procedures and save time.
# Samples were loaded onto the C18 cartridge 2 (particle size 3 μm) by the pump 10 of autosampler 1 (as shown in FIG. 1) using 100% water at 0.6 mL/min, and were washed with 100% water for optimization time of 12 minutes (1.0, 2.0, 3.0, 4.0, 5.0, 6.0, 7.0, 8.0, 10.0, 12.0, 13.0, 14.0). This is to remove highly hydrophilic components of the urine samples to avoid interference with the subsequent detection results of spectrometry 4. The switching unit 3 (valve) was then activated to the Elute position and the sample was eluted with 1.0 mL/min 100% methanol provided by pump 10′ from cartridge 2 into the mass spectrometry 4 for analysis.
# The mass spectrometry used in this invention is the API 365 Triple Quadrupole MS/MS.
# Using the process described in Embodiment 1 above, this invention was used to establish the optimal experimental mode of quantitative detection of organic toxicant exposure in the human body using an automatic mass spectrometry analytical system. This Embodiment is to analyze the S-PMA concentration in urine samples collected from six neonates and six adults in the same hospital; the results are listed in Table 1. In the automatic mass spectrometry analytical system of this invention, each analysis took less than 18 minutes, and therefore 80 urine samples could be analyzed within 24 hours.
structure (smiles),measurement,setting,value
"CC(=O)NC(CSc1ccccc1)C(=O)O (centres unmarked) [S-PMA, S-phenyl mercapturic acid]",S-PMA,"Adult 1, non-smoker",0.560 µg/L
same,S-PMA,"Adult 2, non-smoker",1.268 µg/L
same,S-PMA,"Adult 3, non-smoker",1.411 µg/L
same,S-PMA,"Adult 4, non-smoker",4.196 µg/L
same,S-PMA,"Adult 5, non-smoker",0.993 µg/L
same,S-PMA,"Adult 6, non-smoker",1.255 µg/L
same,S-PMA,Neonate 1,0.249 µg/L
same,S-PMA,Neonate 2,0.345 µg/L
same,S-PMA,Neonate 3,0.322 µg/L
same,S-PMA,Neonate 4,0.365 µg/L
same,S-PMA,Neonate 5,0.356 µg/L
same,S-PMA,Neonate 6,0.348 µg/L
same,S-PMA Arithmetic Mean,"six adults, non-smokers",1.614 µg/L
same,S-PMA Arithmetic Mean,six neonates,0.331 µg/L
